Measurements: PubChem BioAssay AID1963425 (Molecular Pharmacology Branch, DTP, NCI, 2024)

Test system: 323965-272-R-J2-PDC complex spheroid growth, % test/control
Assay: Anticancer human tumor 323965-272-R-J2-PDC patient-derived pancreatic carcinoma cell line growth inhibition [Asc]
Conditions: for IC50: curve of first compound; for viability, T/C: stronger effect = lower value
Summary of the method: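 Concentration series start at each agent's clinical Cmax, or at 10 microM when none is established, and drop in half-log steps; agents are applied alone or together to complex spheroids built with HUVEC and hMSC.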
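Note: compound exposure lasted 7 days starting three days after spheroid seeding.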
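Throughout, for viability, T/C: 100% = DMSO vehicle control wells with viability set relative to vehicle.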

SMILES: C=CC(=O)N1CCN(c2nc(=O)n(-c3c(C)ccnc3C(C)C)c3nc(-c4c(O)cccc4F)c(F)cc23)C(C)C1 (centres undefined) + CNC(C)C(=O)NC1CN(S(=O)(=O)c2cccc(S(=O)(=O)N3CCC4CCC(C(=O)NC(c5ccccc5)c5ccccc5)N4C(=O)C(NC(=O)C(C)NC)C3)c2)CCC2CCC(C(=O)NC(c3ccccc3)c3ccccc3)N2C1=O
- IC50 (second compound 0.00316 µM): > 10 µM
- IC50 (second compound 0.01 µM): > 10 µM
- IC50 (second compound 0.0316 µM): > 10 µM
- IC50 (second compound 0.1 µM): > 10 µM
- IC50 (second compound 0.316 µM): > 10 µM
- IC50 (second compound 1 µM): > 10 µM
- viability, T/C (second compound 0.00316 µM, first compound 0.0316 µM): 67.7%
- viability, T/C (second compound 0.00316 µM, first compound 0.1 µM): 59.1%
- viability, T/C (second compound 0.00316 µM, first compound 0.316 µM): 61.1%
- viability, T/C (second compound 0.00316 µM, first compound 1 µM): 57.4%
- viability, T/C (second compound 0.00316 µM, first compound 3.16 µM): 66.1%
- viability, T/C (second compound 0.00316 µM, first compound 10 µM): 60.2%
- viability, T/C (second compound 0.01 µM, first compound 0.0316 µM): 66.5%
- viability, T/C (second compound 0.01 µM, first compound 0.1 µM): 70.6%
- viability, T/C (second compound 0.01 µM, first compound 0.316 µM): 56.9%
- viability, T/C (second compound 0.01 µM, first compound 1 µM): 69.8%
- viability, T/C (second compound 0.01 µM, first compound 3.16 µM): 55.9%
- viability, T/C (second compound 0.01 µM, first compound 10 µM): 70.3%
- viability, T/C (second compound 0.0316 µM, first compound 0.0316 µM): 83.4%
- viability, T/C (second compound 0.0316 µM, first compound 0.1 µM): 67.7%
- viability, T/C (second compound 0.0316 µM, first compound 0.316 µM): 62.4%
- viability, T/C (second compound 0.0316 µM, first compound 1 µM): 60.6%
- viability, T/C (second compound 0.0316 µM, first compound 3.16 µM): 62%
- viability, T/C (second compound 0.0316 µM, first compound 10 µM): 67.2%
- viability, T/C (second compound 0.1 µM, first compound 0.0316 µM): 76.3%
- viability, T/C (second compound 0.1 µM, first compound 0.1 µM): 60.5%
- viability, T/C (second compound 0.1 µM, first compound 0.316 µM): 66.7%
- viability, T/C (second compound 0.1 µM, first compound 1 µM): 58.8%
- viability, T/C (second compound 0.1 µM, first compound 3.16 µM): 63.9%
- viability, T/C (second compound 0.1 µM, first compound 10 µM): 61.3%
- viability, T/C (second compound 0.316 µM, first compound 0.0316 µM): 64.3%
- viability, T/C (second compound 0.316 µM, first compound 0.1 µM): 65.8%
- viability, T/C (second compound 0.316 µM, first compound 0.316 µM): 56.9%
- viability, T/C (second compound 0.316 µM, first compound 1 µM): 54.9%
- viability, T/C (second compound 0.316 µM, first compound 3.16 µM): 63.2%
- viability, T/C (second compound 0.316 µM, first compound 10 µM): 64.3%
- viability, T/C (second compound 1 µM, first compound 0.0316 µM): 60.1%
- viability, T/C (second compound 1 µM, first compound 0.1 µM): 61.1%
- viability, T/C (second compound 1 µM, first compound 0.316 µM): 57.9%
- viability, T/C (second compound 1 µM, first compound 1 µM): 60.3%
- viability, T/C (second compound 1 µM, first compound 3.16 µM): 59%
- viability, T/C (second compound 1 µM, first compound 10 µM): 56.6%

SMILES: CCN1C(C(=O)NC23CCC(C(=O)O)(CC2)CC3)C(c2cccc(Cl)c2F)C2(C(=O)Nc3cc(Cl)ccc32)C12CCCCC2 (centres undefined) + CNC(C)C(=O)NC1CN(S(=O)(=O)c2cccc(S(=O)(=O)N3CCC4CCC(C(=O)NC(c5ccccc5)c5ccccc5)N4C(=O)C(NC(=O)C(C)NC)C3)c2)CCC2CCC(C(=O)NC(c3ccccc3)c3ccccc3)N2C1=O
- IC50 (second compound 0.00316 µM): > 3 µM
- IC50 (second compound 0.01 µM): > 3 µM
- IC50 (second compound 0.0316 µM): > 3 µM
- IC50 (second compound 0.1 µM): > 3 µM
- IC50 (second compound 0.316 µM): > 3 µM
- IC50 (second compound 1 µM): > 3 µM
- viability, T/C (second compound 0.00316 µM, first compound 0.00949 µM): 107%
- viability, T/C (second compound 0.00316 µM, first compound 0.03 µM): 93.6%
- viability, T/C (second compound 0.00316 µM, first compound 0.0949 µM): 98.2%
- viability, T/C (second compound 0.00316 µM, first compound 0.3 µM): 93.1%
- viability, T/C (second compound 0.00316 µM, first compound 0.949 µM): 105%
- viability, T/C (second compound 0.00316 µM, first compound 3 µM): 89.3%
- viability, T/C (second compound 0.01 µM, first compound 0.00949 µM): 110%
- viability, T/C (second compound 0.01 µM, first compound 0.03 µM): 97.8%
- viability, T/C (second compound 0.01 µM, first compound 0.0949 µM): 101%
- viability, T/C (second compound 0.01 µM, first compound 0.3 µM): 93.5%
- viability, T/C (second compound 0.01 µM, first compound 0.949 µM): 97%
- viability, T/C (second compound 0.01 µM, first compound 3 µM): 89.7%
- viability, T/C (second compound 0.0316 µM, first compound 0.00949 µM): 99.9%
- viability, T/C (second compound 0.0316 µM, first compound 0.03 µM): 99.1%
- viability, T/C (second compound 0.0316 µM, first compound 0.0949 µM): 105%
- viability, T/C (second compound 0.0316 µM, first compound 0.3 µM): 101%
- viability, T/C (second compound 0.0316 µM, first compound 0.949 µM): 92.2%
- viability, T/C (second compound 0.0316 µM, first compound 3 µM): 82.7%
- viability, T/C (second compound 0.1 µM, first compound 0.00949 µM): 116%
- viability, T/C (second compound 0.1 µM, first compound 0.03 µM): 97.7%
- viability, T/C (second compound 0.1 µM, first compound 0.0949 µM): 97.8%
- viability, T/C (second compound 0.1 µM, first compound 0.3 µM): 104%
- viability, T/C (second compound 0.1 µM, first compound 0.949 µM): 87.5%
- viability, T/C (second compound 0.1 µM, first compound 3 µM): 83.9%
- viability, T/C (second compound 0.316 µM, first compound 0.00949 µM): 93%
- viability, T/C (second compound 0.316 µM, first compound 0.03 µM): 81.6%
- viability, T/C (second compound 0.316 µM, first compound 0.0949 µM): 94.8%
- viability, T/C (second compound 0.316 µM, first compound 0.3 µM): 93.3%
- viability, T/C (second compound 0.316 µM, first compound 0.949 µM): 95.7%
- viability, T/C (second compound 0.316 µM, first compound 3 µM): 86.2%
- viability, T/C (second compound 1 µM, first compound 0.00949 µM): 90.8%
- viability, T/C (second compound 1 µM, first compound 0.03 µM): 87.6%
- viability, T/C (second compound 1 µM, first compound 0.0949 µM): 94.7%
- viability, T/C (second compound 1 µM, first compound 0.3 µM): 85.5%
- viability, T/C (second compound 1 µM, first compound 0.949 µM): 89.5%
- viability, T/C (second compound 1 µM, first compound 3 µM): 76.6%
